Among the data in paper PMC9586306 (Proceedings of the National Academy of Sciences of the …, 2022) are IC50 values, retold here.

The target in assay [1] is A/California/04/2009 (H1N1) neuraminidase (09N1) (Influenza A virus (A/California/04/2009(H1N1)), UniProt C3W5S3). Type of assay: biochemical. Particulars: read-out: IC50 ± SEM.
Assay [2] addresses IBV NA (B/Singapore/222/1979) (Influenza B virus, UniProt P16203). Type of assay: biochemical, Influenza B virus B/Singapore/222/1979. Particulars: read-out: IC50 ± SEM.

Sequence of IBV NA (B/Singapore/222/1979) (P16203 77-466 limits assumed): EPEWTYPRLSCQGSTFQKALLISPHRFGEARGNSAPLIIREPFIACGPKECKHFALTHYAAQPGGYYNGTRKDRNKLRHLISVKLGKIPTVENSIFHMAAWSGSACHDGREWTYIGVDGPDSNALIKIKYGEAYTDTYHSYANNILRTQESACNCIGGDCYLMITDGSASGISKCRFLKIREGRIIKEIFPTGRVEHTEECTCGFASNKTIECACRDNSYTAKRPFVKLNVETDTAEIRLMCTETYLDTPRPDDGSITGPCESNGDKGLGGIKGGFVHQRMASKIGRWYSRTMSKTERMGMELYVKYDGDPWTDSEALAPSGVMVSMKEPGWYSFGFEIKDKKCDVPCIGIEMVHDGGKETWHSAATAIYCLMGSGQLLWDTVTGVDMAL

Take `CCC(CC)[C@H](NC(C)=O)[C@@H]1[C@H](O)[C@@H](C(=O)O)C[C@H]1N=C(N)N` [Peramivir, peramivir]: the results for the IC50 in assay [1] and in assay [2] were 0.45 ± 0.08 nM and 16.9 ± 1.94 nM, respectively.
